Earlier results in patent publication US20160235660A1, “COSMETIC COMPOSITION AND USE THEREOF” (EMS S.A., priority 2015, published 2016).

Tested on: facial melasma
Conditions: hydroquinone 4% vs 0.75% kojic acid cream

## Oc1ccc(O)cc1 [hydroquinone, 1,4-dihydroxybenzene]
  action in the treatment of melasma compared with kojic acid: superiority
